The test system of one test is rats. The experiment in a line: Localized inflammatory hyperalgesia induced by intraplantar injection of endotoxin (ET); PP, PI, HP, TF pain tests. The class given is in vivo, rat. As to the method:
The experiments were conducted using adult, male Sprague-Dewless rats weighing between 200 and 250 g. The animals were reared under optimum conditions of light and temperature (12 h light and shadow cycle; 22±3° C.). Food and water were dispensed ad libitum. All of the experiments were conducted in compliance with the ethical directives relative to pain experiments done on animals in the conscious state (Zimmermann M., 1983, Ethical guidelines for investigations of experimental pain in conscious animals, Pain, 16:109-110) and they were approved by the Institutional Review Board for animal care.
Thermal and mechanical pain tests were done over a period of 3 consecutive days prior to the injections, in order to establish a baseline.
The mechanical nociceptive threshold was determined by the mechanical paw pressure test (PP), while that of the thermal nociceptive threshold was determined using the hot-plate (HP), the paw immersion in hot water (PI) and the tail flick (TF) tests.
The PP test is done by applying a constant pressure of 0.20 g/cm^2 alternatingly to the left and right hind paws in an interval of 5 minutes between 2 consecutive pressure applications.
In the HP test, the animals are placed individually on a hot plate (52.5° C.±0.3° C.). The pain threshold is measured by the latency period lapsed between the moment, at which the animal is placed on the hot plate and the first sign of pain, indicated by the fact that the animal licks the paw or jumps.
In the PI test, the hind paws are wetted alternately in distilled water at 48° C. and the latency time lapsed until the first sign of withdrawal of the paw is noted.
In the TF test, the tail of each animal is immersed in distilled water at 50.5° C. The latency time taken by the animal to withdraw it is noted. The results are based on 3 consecutive trials done in 5 minute intervals.
In the so-called localized model, the rats received on intraplantar injection of a solution (1.25 μg in 50 μl of […]) of endotoxin (Salmonella typhasa lipopolysaccharides, Sigma) into one of the hind paws, which induces both thermal and mechanical hyperalgesia restricted to the paw having received the injection.
Various treatments are then possible • Protocol 1(a): different groups of rats (n=5 in each group) were treated with the analogue peptide (TAP) Glu-Ala-lys-Ser-Gln-Gly-Gly-Ser-Asp (synthesized by Quantum Biotechnologies, Inc., Canada), in the following fashion : • either, they received one intraperitoneal injection (25 μg in 50 μl of physiological saline solution) of this peptide; • or, they were pretreated with different doses of this peptide (1.5 and 25 μg in 50 μl of sodium chloride) by intraperitoneal injection, 30 minutes prior to injection of endotoxins (ET) (1.25 μg in 50 μl of physiological saline solution by intraplantar injection). • Protocol 1(b): other experiments looked at comparing the efficacy of the analog peptides with that of steroids, NSAIDs and peptides known for their antagonism of the hyperalgesia induced by IL-1β and the prostaglandins.
One group of rats was pretreated with intraperitoneal injections of Lys-D-Pro-Thr (10 mg/kg) in 100 μl of physiological saline solution, 30 minutes prior to injection of TAP. This tripeptide is know for its antagonism of the hyperalgesia induced by IL-1β only.
In the second group, the rats received intraperitoneal injections of the Lys-D-Pro-Val tripeptide (10 mg/kg) in 100 μl of saline solution, 30 minutes prior to the injection of TAP. Lys-D-Pro-Val is an antagonist of the hyperalgesia induced by IL-1β and PEG2.
A third and a fourth group were treated with dexamethasone and indomethacin.
Dexamethasone phosphate dissolved in a […] sodium solution was injected, at a concentration of 200 μg/kg, just before and 3 hours after the injection of ET. […]

A further test has as its system TNF-α. The experiment in a line: TNF-α in hind paw skin after intraplantar ET (ELISA). The format is in vivo, rat. On the procedure:
These experiments required tissue sampling. The animals were sacrificed by anesthesia (sodium penthiobarbital, 50 mg/kg) and the skin of the hind paws is sampled either at 1 h (for the determination of the TNFα) or at 4 h (for the determination of IL-1β, IL-6 and NGF) after the endotoxin injection.
These tissue samples are weighed and then quick frozen and stored at −70° C. with a view of proceeding with the evaluation of IL-1β, TNFα, IL-6 and NGF.
In another series of experiments, the tissues are taken as described above using different groups of rats; the one group being pretreated with TAP 30 minutes before injection of ET and the other group having been injected with TAP only.
The tissues are homogenized in a phosphate buffer solution (PBS, pH=7.4), containing 0.4 M of NaCl, 0.05% of Tween-20®, 0.5% bovine serum albumin (BSA), 0.1 mM of phenylmethylsulfonyl fluoride, 0.1 mM of benzethonium chloride, 10 mM of EDTA and 20 KI/mL of aprotinin.
The mixture is then centrifuged at 1,200 g for 60 minutes at 4° C. The cytokines and the NFG contained in the supernatant were measured using ELIZA assays. […]
On the technique in general: An ELISA detects its analyte on a solid surface through an enzyme-linked reagent.

Turning to “Glu-Ala-lys-Ser-Gln-Gly-Gly-Ser-Asp (SQGGSD; N-terminal Glu-Ala-Lys; printed: Ser-Gln-Gly-Gly-Ser-Asp) [TAP]”, the “effect compared with indomethacin and dexamethasone” value in the test with rats (ET 1.25 μg intraplantar, indomethacin 4 mg/kg, dexamethasone 200 μg/kg, FIG. 2) is “effects similar to those of indomethacin and dexamethasone but at much lower concentrations”. In addition, the “analgesic efficacy compared with Lys-D-Pro-Val and Lys-D-Pro-Thr peptides” value in the test on rats (ET 1.25 μg intraplantar, tripeptides 10 mg/kg i.p., FIG. 2) is reported as “much more efficacious analgesic agent”. For the same substance, the “latency, paw pressure (PP) test” value with rats (TAP 25 μg i.p. 30 min before ET 1.25 μg intraplantar, 9 h after ET, ET alone 0.87±0.09 s, saline 2.06±0.06 s) turned out to be 2.05 ± 0.07 s. The “latency, paw immersion (PI) test” value in the test on rats (TAP 25 μg i.p. 30 min before ET 1.25 μg intraplantar, 9 h after ET, ET alone 1.25±0.04 s, saline 1.97±0.05 s) came out at 1.94 ± 0.005 s. In the test on rats (TAP 25 μg i.p. 30 min before ET 1.25 μg intraplantar, 9 h after ET, ET alone 2.40±0.06 s, saline 3.19±0.08 s), the “latency, tail flick (TF) test” value worked out at 3.22 ± 0.09 s. In addition, the “latency, hot-plate (HP) test” value with rats (TAP 25 μg i.p. 30 min before ET 1.25 μg intraplantar, 9 h after ET, ET alone 6.0±0.18, saline 9.24±0.16 s) came to 9.12 ± 0.7 s. For the same substance, the “effect on hyperalgesia induced by intraplantar ET” value with rats (TAP 1.5 and 25 μg i.p. pretreatment, FIG. 1) was “reduced in dose-dependent fashion the hyperalgesia”. Further, the “change in latency time in the pain tests, TAP alone” value in the test with rats (TAP alone 25 μg in 50 μl saline i.p., no ET) is “did not result in significant change in the latency time”. Also, in the test on TNF-α (TAP 25 μg in control animals, no ET), the “change of TNF-α concentration, TAP alone” value is on record as “did not induce significant change”. Besides, the “effect on ET-induced increase of TNF-α concentration” value in the test with TNF-α (TAP pretreatment 30 min before ET, paw, one hour after ET, ET alone 345.0±61.0, saline 100.0±8.00 pg/paw) is recorded as “nullified the increase of the TNF-α concentration”.

The record behind these values is patent publication US20050261194A1, “Use of thymulin-like peptides for making pain-relieving medicines” (priority 2001, published 2005).
